Laboratory results published in US20150253330A1, “PRE-SELECTION OF SUBJECTS FOR THERAPEUTIC TREATMENT WITH AN HSP90 INHIBITOR BASED ON HYPOXIC STATUS” (Synta Pharmaceuticals Corp., priority 2012, published 2015).
pIC50: −log10 of the molar value.

What was measured:
[1] = system: advanced GIST; test: Phase 2 study in gastrointestinal stromal tumors (GIST); assay type: in vivo, human
Protocol: Patients with advanced (e.g., metastatic or unresectable) GIST following failure of prior therapy, e.g., imatinib or sunitinib, received ganetespib (200 mg/m^2) as a 1 hour IV infusion once per week for 3 weeks of a 28 day cycle. GIST status was assessed at 8 weeks per RECIST, until progression. […] Hsp90 client protein levels were analyzed in biopsies pre-therapy and 24-48 h post-treatment with ganetespib in a subset of patients.

[2] = system: GT3TKB; test: 72 hr viability by Syto60, gastric cell line; assay type: cell-based; conditions: Syto60 (lower), read-out: ganetespib IC50
[3] = system: Hsp90 client proteins; test: Western blot of Hsp90 client proteins in AGS gastric cancer cells; assay type: cell-based
Protocol: Ganetespib was also evaluated for its effects on Hsp90 client proteins in AGS gastric cancer cells by western blot. […] Similar to the observation in melanoma cells, exposure to ganetespib […] BRAF expression.

[4] = system: Detroit 562 H/N cancer cells; test: Single agent viability assay, 72 hr, head and neck cancer cells; assay type: cell-based
Description: (§1) Head and neck (H/N) cancer refers to a group of biologically similar cancers originating from the upper autodigestive tract. First line therapies include EGFR inhibitors and platins. Modulation of EGFR and other client proteins by ganetespib was investigated in Detroit 562 H/N cancer cells.

[5] = system: EGFR and other client proteins; test: Western blot of Hsp90 client proteins in Detroit 562 cells, 24 hr; assay type: cell-based; conditions: Detroit 562, 24 hr
Description: as §1

[6] = system: 15 KRAS mutant NSCLC cell lines; test: Viability of KRAS mutant NSCLC cell line panel, 72 h, CellTiter-Glo; assay type: cell-based; conditions: across 15 KRAS mutant NSCLC cell lines in vitro
Protocol: Breast cancer is a heterogeneous disease historically broken down into 4 subtypes. Various compounds were tested for their effects in cell viability assays using various breast cancer cell lines. Cellular viability was assessed using the CellTiter-Glo® Luminescent Cell Viability Assay (Promega, Madison, Wis., USA) according to the manufacturer's protocol. KRAS mutant NSCLC cell lines were seeded into 96-well plates based on optimal growth rates determined empirically for each line. Twenty-four hours after plating, cells were dosed with graded concentrations of ganetespib for 72 h. CellTiter-Glo® was added (50% v/v) to the cells, and the plates incubated for 10 min prior to luminescent detection in a SpectraMax® Plus 384 microplate reader (Molecular Devices, Sunnyvale, Calif., USA). Data were normalized to percent of control and IC50 values used to determine the sensitivity of each line. For the comparative analysis study with MEK and PI3K/mTOR inhibitors, A549, H2009, Calu-1, and H358 cells were treated with graded concentrations of ganetespib, AZD6244, or BEZ235 for 72 h and cell viability measured as above.

[7] = system: A549 cells; test: Combinatorial viability analysis, 72 hours; assay type: cell-based
Protocol: (§2) For combinatorial analysis, cells were seeded in 96-well plates at a predetermined, optimum growth density for 24 h prior to the addition of drug or vehicle to the culture medium. Drug combinations were applied at a non-constant ratio over a range of concentrations for 72 or 96 hours. […] Cell viability was assessed by either AlamarBlue® (Invitrogen, Carlsbad, Calif.) or CellTiter-Glo® assays and normalized to vehicle controls. For each combination study, the level of growth inhibition (fraction affected) is plotted relative to vehicle control. Data are presented as one relevant combination point and the corresponding single agent data for each cell line tested.

[8] = system: H2009 cells; test: Combinatorial viability analysis, 72 hours; assay type: cell-based
Protocol: as §2

[9] = system: H2030 cells; test: Combinatorial viability analysis, 72 hours; assay type: cell-based
Protocol: as §2

[10] = system: H358 cells; test: Combinatorial viability analysis, 72 hours; assay type: cell-based
Protocol: as §2

[11] = system: KRAS substrates, including BRAF and CRAF; test: KRAS substrates at the molecular level in KRAS mutant NSCLC cells; assay type: cell-based
[12] = system: human KRAS mutant NSCLC tumor xenografts; test: KRAS mutant NSCLC tumor xenografts in vivo; design: species or system mice
Description: Female immunodeficient CD-1 (nude) mice (Charles River Laboratories, Wilmington, Mass.) were maintained in a pathogen-free environment, and all in vivo procedures were approved by the Synta Pharmaceuticals Corp. Institutional Animal Care and Use Committee. A549 NSCLC cells (7.5×10^6) were subcutaneously implanted into the animals. Mice bearing established tumors (100-200 mm^3) were randomized into treatment groups of 8 and i.v. dosed via the tail vein with either vehicle, ganetespib formulated in 10/18 DRD (10% DMSO, 18% Cremophor RH 40, 3.6% dextrose, 68.4% water) or p.o. dosed with BEZ235 formulated in PEG300/NMP (90% PEG300, 10% N-Methylpyrrolidone). Animals were treated with ganetespib at 50 mg/kg weekly or BEZ235 at 10 mg/kg 5 times a week, either alone or in combination. Tumor growth inhibition was determined as described previously. See Proia et al, PLoS One. 2011; 6(4):e18552.

[13] = system: angiogenesis; test: Egg CAM and matrigel plug angiogenesis assays; design: species or system chicken; conditions: all three models
Protocol: The conditioned medium was collected from control and treated cells. 100 μl of conditioned medium, either control or treated, was injected into fertilized chicken eggs. Eggs were incubated at 37° C. for 15 days, then dissected and the membrane was photographed.
It's postulated that functional inhibition of Hsp90 by ganetespib can inhibit angiogenesis and growth in vitro and in vivo models of pancreatic cancer. PANC-1 and HPAC cell lines were treated with vehicle or G (50 nM) for 24 h and lysates were analyzed by Western blot. Egg CAM and matrigel plug assays were performed to quantify the effects of ganetespib on angiogenesis. Efficacy of ganetespib (100 mg/kg) was assessed in mice bearing HPAC and ASPC-1 xenograft.
Mia-PaCa2, PANC-1 and HPAC cells were treated with Ganetespib (50 nM) or control for 24 hours, the conditioned medium was harvested and 100 μl of conditioned or control medium was injected into fertilized chicken eggs (Avian Vaccine Service center, North Franklin, Conn.). Eggs were incubated at 37° C. for 15 days and dissected. Chorioallantoic membrane was photographed.

[14] = ganetespib combined with pemetrexed
[15] = ganetespib in combination with gemcitabine
[16] = low nanomolar ganetespib combined with camptothecin

**Q.** How did the “Adverse events reported in >20% of patients” value ([1]; 200 mg/m^2 once per week for 3 weeks of a 28 day cycle, generally NCI CTC grade 1-2) turn out when `CC(C)c1cc(-c2nnc(O)n2-c2ccc3c(ccn3C)c2)c(O)cc1O` [ganetespib] was run?
**A.** diarrhea, fatigue, nausea, vomiting, increased alkaline phosphatase, headache, insomnia, and abdominal pain

**Q.** And the “Evaluable patients with SD” value ([1]; 4 SD 16 weeks, 8 SD≧8 weeks)?
**A.** 12/23

**Q.** And the “Client proteins in paired tumor biopsies” value ([1]; biopsies from 4 patients, pre-therapy and 24-48 h post-treatment)?
**A.** did not show prolonged inhibition of activated KIT or its downstream pathways

**Q.** And the Tolerability ([1]; once-weekly dosing, no evidence of severe liver, ocular, cardiac or renal toxicity)?
**A.** well-tolerated

**Q.** What about the pIC50 [2] of the same compound?
**A.** 8.22

**Q.** And the “Effect on Hsp90 client proteins by western blot” value [3]?
**A.** abolished the expression of EGFR, IGF-IR, C-RAF

**Q.** And the “Cell viability after a 72 hr exposure” value ([4]; Detroit 562)?
**A.** A fraction of cells remained viable

**Q.** And the pIC50 ([4]; Homo sapiens, Detroit 562, single agent viability, 72 hr)?
**A.** 7.38

**Q.** And the “Modulation of EGFR and other client proteins” value [5]?
**A.** depletion of EGFR and JAK2

**Q.** What about the pIC50 [6] of the same compound?
**A.** 7.62

**Q.** What about the Increase in cytotoxicity [7, 14] of the same compound?
**A.** marginal increase in cytotoxicity

**Q.** And the Increased cell death [7, 15]?
**A.** 1.4 fold

**Q.** And the Enhanced cell death [8, 14]?
**A.** 1.5 fold

**Q.** And the Increased cell death [8, 15]?
**A.** 2.3 fold

**Q.** And the “Fold increase in cytotoxicity” value [8, 16]?
**A.** 1.5 fold

**Q.** What about the Enhanced cell death [9, 14] of the same compound?
**A.** 2.4 fold

**Q.** And the “Fold increase in cytotoxicity” value [9, 16]?
**A.** 3.4 fold

**Q.** What about the Increase in cytotoxicity [10, 14] of the same compound?
**A.** marginal increase in cytotoxicity

**Q.** And the Benefit of combination [10, 15]?
**A.** no benefit

**Q.** What about the “Fold increase in cytotoxicity” value [10, 16] of the same compound?
**A.** 1.4 fold

**Q.** And the “Effect on KRAS substrates” value [11]?
**A.** induced the destabilization of several KRAS substrates, including BRAF and CRAF

**Q.** What about the “Tumor growth inhibition in the combination arm” value ([12]; ganetespib combined with a PI3K/mTOR inhibitor) of the same compound?
**A.** considerable improvement in tumor growth inhibition

**Q.** What about the “Growth of KRAS mutant NSCLC tumor xenografts” value ([12]; single agent) of the same compound?
**A.** effectively suppressed the growth

**Q.** And the Tumor regression ([12]; single agent)?
**A.** did not induce tumor regression

**Q.** What about the “Angiogenesis compared to vehicle” value [13] of the same compound?
**A.** reduced angiogenesis
